# Source: ChEMBL document CHEMBL3885861, “Open TG-GATES”
# Species on record: Rattus norvegicus
# Experiment: Open TG-GATES - Regimen: Single
# Assay type: toxicity, organism-based, Sprague-Dawley
# Set-up: regimen Single, gender Male, age 6 weeks
# Details: in vivo, po, 1000 mg/kg, route gavage, dose level High; for APTT / Bas / Eos / Fbg / Hb / Ht / Lym / MCH / MCHC / MCV / Mono / Neu / PT / Plat / RBC / Ret / WBC: tissue Blood; for KIDNEY_L / KIDNEY_R / KIDNEY_TOTAL: tissue Kidney; for LIVER: tissue Liver; for ALP / ALT / AST / BUN / CRE / Ca / Cl / DBIL / GLC / IP / K / LDH / Na / PL / RALB / TBIL / TC / TG / TP / gamma-GTP: tissue Plasma
smiles,measurement,setting,value
COC(=O)C1=C(C)NC(C)=C(C(=O)OC)C1c1ccccc1[N+](=O)[O-] [NIFEDIPINE],TERMINAL_BW,3 h,207.9 g
same,APTT,3 h,16.6 s
same,Bas,3 h,0%
same,Eos,3 h,1%
same,Fbg,3 h,285.2 mg/dL
same,Hb,3 h,13 g/dL
same,Ht,3 h,39.9%
same,Lym,3 h,69.8%
same,MCH,3 h,20.8 pg
same,MCHC,3 h,32.6%
same,MCV,3 h,63.8 fL
same,Mono,3 h,4.6%
same,Neu,3 h,24.2%
same,PT,3 h,14.9 s
same,Plat,3 h,122.2 x10_4/uL
same,RBC,3 h,626 x10_4/ul
same,Ret,3 h,9.7%
same,WBC,3 h,108.1 x10_2/uL
same,KIDNEY_L,3 h,0.9 g
same,KIDNEY_R,3 h,0.9 g
same,KIDNEY_TOTAL,3 h,1.9 g
same,LIVER,3 h,8.4 g
same,ALP,3 h,1381.2 IU/L
same,ALT,3 h,51 IU/L
same,AST,3 h,74.8 IU/L
same,BUN,3 h,26.2 mg/dL
same,CRE,3 h,0.2 mg/dL
same,Ca,3 h,11.8 mg/dL
same,Cl,3 h,97.2 meq/L
same,DBIL,3 h,0.008 mg/dL
same,GLC,3 h,260.8 mg/dL
same,IP,3 h,9.2 mg/dL
same,K,3 h,5 meq/L
same,LDH,3 h,99.4 IU/L
same,Na,3 h,134.8 meq/L
same,PL,3 h,141.4 mg/dL
same,RALB,3 h,2.5 g/dL
same,TBIL,3 h,0.036 mg/dL
same,TC,3 h,81.6 mg/dL
same,TG,3 h,46.4 mg/dL
same,TP,3 h,5.2 g/dL
same,gamma-GTP,3 h,1.6 IU/L
same,TERMINAL_BW,6 h,205.1 g
same,APTT,6 h,16.5 s
same,Bas,6 h,0.2%
same,Eos,6 h,0.4%
same,Fbg,6 h,282.6 mg/dL
same,Hb,6 h,13 g/dL
same,Ht,6 h,39.6%
same,Lym,6 h,77%
same,MCH,6 h,20.6 pg
same,MCHC,6 h,32.8%
same,MCV,6 h,62.7 fL
same,Mono,6 h,3.6%
same,Neu,6 h,18%
same,PT,6 h,14.9 s
same,Plat,6 h,123.3 x10_4/uL
same,RBC,6 h,632.4 x10_4/ul
same,Ret,6 h,9.2%
same,WBC,6 h,92.1 x10_2/uL
same,KIDNEY_L,6 h,0.9 g
same,KIDNEY_R,6 h,0.9 g
same,KIDNEY_TOTAL,6 h,1.9 g
same,LIVER,6 h,7.3 g
same,ALP,6 h,1242.8 IU/L
same,ALT,6 h,50.6 IU/L
same,AST,6 h,83 IU/L
same,BUN,6 h,40.2 mg/dL
same,CRE,6 h,0.2 mg/dL
same,Ca,6 h,11 mg/dL
same,Cl,6 h,97.2 meq/L
same,DBIL,6 h,0.008 mg/dL
same,GLC,6 h,229.6 mg/dL
same,IP,6 h,11 mg/dL
same,K,6 h,5 meq/L
same,LDH,6 h,81 IU/L
same,Na,6 h,136.4 meq/L
same,PL,6 h,148.2 mg/dL
same,RALB,6 h,2.6 g/dL
same,TBIL,6 h,0.052 mg/dL
same,TC,6 h,90.2 mg/dL
same,TG,6 h,16.4 mg/dL
same,TP,6 h,5.4 g/dL
same,gamma-GTP,6 h,1 IU/L
same,TERMINAL_BW,9 h,206.6 g
same,APTT,9 h,16.7 s
same,Bas,9 h,0.4%
same,Eos,9 h,0.4%
same,Fbg,9 h,287 mg/dL
same,Hb,9 h,13.2 g/dL
same,Ht,9 h,39.8%
same,Lym,9 h,74%
same,MCH,9 h,20.8 pg
same,MCHC,9 h,33.3%
same,MCV,9 h,62.5 fL
same,Mono,9 h,4.8%
same,Neu,9 h,19.2%
same,PT,9 h,14.6 s
same,Plat,9 h,123.6 x10_4/uL
same,RBC,9 h,637 x10_4/ul
same,Ret,9 h,9.7%
same,WBC,9 h,96.3 x10_2/uL
same,KIDNEY_L,9 h,0.9 g
same,KIDNEY_R,9 h,0.9 g
same,KIDNEY_TOTAL,9 h,1.7 g
same,LIVER,9 h,7.1 g
same,ALP,9 h,1341 IU/L
same,AST,9 h,75.2 IU/L
same,BUN,9 h,41.8 mg/dL
same,CRE,9 h,0.2 mg/dL
same,Ca,9 h,10.8 mg/dL
same,Cl,9 h,96.4 meq/L
same,DBIL,9 h,0.008 mg/dL
same,GLC,9 h,217.4 mg/dL
same,IP,9 h,11.9 mg/dL
same,K,9 h,5.3 meq/L
same,LDH,9 h,85 IU/L
same,Na,9 h,134.6 meq/L
same,PL,9 h,152.4 mg/dL
same,RALB,9 h,2.6 g/dL
same,TBIL,9 h,0.052 mg/dL
same,TC,9 h,90.8 mg/dL
same,TG,9 h,22.2 mg/dL
same,TP,9 h,5.5 g/dL
same,gamma-GTP,9 h,1.4 IU/L
same,TERMINAL_BW,24 h,197.1 g
same,APTT,24 h,17.4 s
same,Bas,24 h,0.2%
same,Eos,24 h,0.8%
same,Fbg,24 h,374 mg/dL
same,Hb,24 h,13.1 g/dL
same,Ht,24 h,39.6%
same,Lym,24 h,72.8%
same,MCH,24 h,20.9 pg
same,MCHC,24 h,33.1%
same,MCV,24 h,63.3 fL
same,Mono,24 h,3.6%
same,Neu,24 h,22%
same,PT,24 h,13.7 s
same,Plat,24 h,142.3 x10_4/uL
same,RBC,24 h,625.8 x10_4/ul
same,Ret,24 h,9.7%
same,WBC,24 h,99.5 x10_2/uL
same,KIDNEY_L,24 h,0.8 g
same,KIDNEY_R,24 h,0.9 g
same,KIDNEY_TOTAL,24 h,1.7 g
same,LIVER,24 h,6.9 g
same,ALP,24 h,1549.8 IU/L
same,ALT,24 h,40.6 IU/L
same,AST,24 h,67.8 IU/L
same,BUN,24 h,10.8 mg/dL
same,CRE,24 h,0.2 mg/dL
same,Ca,24 h,10.4 mg/dL
same,Cl,24 h,106 meq/L
same,DBIL,24 h,0.012 mg/dL
same,GLC,24 h,167 mg/dL
same,IP,24 h,8.6 mg/dL
same,K,24 h,3.8 meq/L
same,LDH,24 h,78.2 IU/L
same,Na,24 h,143 meq/L
same,PL,24 h,126.4 mg/dL
same,RALB,24 h,2.9 g/dL
same,TBIL,24 h,0.054 mg/dL
same,TC,24 h,78 mg/dL
same,TG,24 h,27 mg/dL
same,TP,24 h,6.1 g/dL
same,gamma-GTP,24 h,1 IU/L
